According to PMC6149822, “A New Series of Pyrrole-Based Chalcones: Synthesis and Evaluation of Antimicrobial Activity, Cytotoxicity, and Genotoxicity” (Molecules : A Journal of Synthetic Chemistry and Natural …, 2017):
Values after ≈ are worked out from the molar mass of the structure shown.

Tests used:
[1] = system: C. parapsilosis (ATCC 22019); experiment: Microdilution susceptibility assay (MIC); type: cell-based, Candida parapsilosis; conditions: Lodderomyces parapsilosis, ATCC22019
Method: (§1) Compounds 1–10 were screened for their antimicrobial activity against gram-negative bacteria, gram-positive bacteria, and yeasts, listed in Table 1. Bacteria were grown in Mueller-Hinton Broth and yeasts were grown in Sabouraud Dextrose Broth (SDB) during experiments. Overnight cultures were prepared routinely by subculturing of stock culture onto Mueller-Hinton Agar for bacteria and Sabouraud Dextrose Agar for yeasts.
(§2) Microdilution susceptibility assay was used for the determination of antibacterial and anticandidal efficacy of compounds 1–10. Chloramphenicol and ketoconazole were used as positive controls for bacteria and yeasts, respectively. All experiments were designed according to the Clinical Laboratory Standards Institute (CLSI). All chemicals were dissolved in dimethyl sulfoxide (DMSO) to obtain stock solution (10 mg/mL). Two-fold serial dilutions (800, 400, 200...0.78 µg/mL) of the compounds were prepared from stock solutions with dH2O. 100 µL of each solution was transferred to 96-well microtiter plates and 100 µL of 10^6 CFU/mL of bacteria and 2 × 10^3 of CFU/mL yeast were added to related wells. As negative controls, wells including microorganisms without agents and wells including agents without microorganisms were used. The plates were kept at 35 °C for 18–20 h and the growth was determined with resazurin (20 mg/mL). Assays were carried out in triplicate.

[2] = system: A549 human lung adenocarcinoma cell line; experiment: MTT assay; type: cell-based; conditions: Homo sapiens, A549
Method: (§3) The anticancer effects of compounds 1–10 on A549 human lung adenocarcinoma (ATCC® CCL-185™), HepG2 human hepatocellular carcinoma (ATCC® HB-8065™), and C6 rat glioma (ATCC® CCL107™) cell lines were assessed using 3-(4,5-Dimethylthiazol-2-yl)-2,5-diphenyltetrazolium bromide (MTT) assay, whereas the selectivity of compounds 1–10 was tested using NIH/3T3 mouse embryonic fibroblast cell line (ATCC® CRL-1658™, London, UK). All cell lines were incubated according to the supplier’s recommendations. The cells were seeded as 1 × 10^4 cells into each well of the 96-well plates. MTT assay was performed as previously described. The compounds were tested between the concentrations equal to 1 mM and 0.000316 mM (1.0, 0.316, 0.10, 0.0316, 0.01, 0.00316, 0.001, 0.000316 mM). Stock solutions of compounds were prepared in dimethyl sulfoxide (DMSO) and further dilutions were made with fresh culture medium. The final DMSO concentration was under 1% [34] and cisplatin was used as a positive control. Inhibition % was calculated for each concentration according to the formula below, and IC50 values were determined by plotting a dose–response curve of inhibition % versus compound concentrations tested. All experiments were performed in quadruplicate.Inhibition % = 100 − [(ODtest compound − ODblank/ODsolvent control − ODblank)] × 100(1)

C6 rat glioma cell line = experiment: MTT assay; type: cell-based; conditions: Rattus norvegicus, C6
Method: as §3

[3] = system: HepG2 human hepatocellular carcinoma cell line; experiment: MTT assay; type: cell-based; conditions: Homo sapiens, HepG2
Method: as §3

[4] = system: NIH/3T3 mouse embryonic fibroblast cell line; experiment: MTT assay; type: cell-based; conditions: Mus musculus, NIH3T3, healthy cells for selectivity
Method: as §3

E. faecalis (ATCC 51299) = experiment: Microdilution susceptibility assay (MIC); type: cell-based; conditions: Enterococcus faecalis, ATCC51299
Method: as §1, §2

C. albicans (ATCC 90028) = experiment: Microdilution susceptibility assay (MIC); type: cell-based; conditions: Candida albicans, ATCC90028
Method: as §1, §2

[5] = system: K. pneumoniae (ATCC 700603); experiment: Microdilution susceptibility assay (MIC); type: cell-based; conditions: Klebsiella pneumoniae, ATCC700603
Method: as §1, §2

E. faecalis (ATCC 29212) [6] = experiment: Microdilution susceptibility assay (MIC); type: cell-based; conditions: Enterococcus faecalis, ATCC29212
Method: as §1, §2

E. coli (ATCC 25922) = experiment: Microdilution susceptibility assay (MIC); type: cell-based; conditions: Escherichia coli, ATCC25922
Method: as §1, §2

S. aureus (ATCC 25923) = experiment: Microdilution susceptibility assay (MIC); type: cell-based; conditions: Staphylococcus aureus, ATCC25923
Method: as §1, §2

C. albicans = experiment: ATP luminescence microbial cell viability assay; type: cell-based, Candida albicans; conditions: 24 h treatment, result in words
Method: (§4) A model from BioTek Instruments Inc. combined with a BacTiter-Glo^TM Microbial Cell Viability assay (Promega Corp., Madison, WI, USA) was used to provide a sensitive and rapid method for determining the number of viable microbial cells in culture based on quantitation of the ATP present. […] After incubation, cultures were added into the wells (final concentration of bacteria was 5 × 10^5 CFU/mL and 2.5 × 10^6 CFU/mL for yeasts). After adding the BacTiter reagent, incubation time for bacteria and yeasts was 5 min and 15 min, respectively.
The assay generates a “glow-type” luminescent signal, produced by the luciferase reaction. Briefly, after chemicals and strains were incubated for 24 h, 100 µL of the culture was taken from each well and mixed with the same volume of the BacTiter-Glo™ reagent in a white, opaque-walled microtiter plate. Control wells containing medium without cells were prepared to obtain a value for background luminescence. Cells without compound were used as an ATP-positive control. The microplates were further incubated under agitation for 7 min. Bioluminescence was recorded in a multi-detection microplate reader (BioTek Synergy 2 Multi-Mode Microplate Reader, BioTek Instruments, Winooski, VT, USA). […] Experiments were performed in triplicate and each sample was measured in four replicates.

E. faecalis (ATCC 29212) [7] = experiment: ATP luminescence microbial cell viability assay; type: cell-based, Enterococcus faecalis; conditions: 24 h treatment, result in words
Method: as §4
The assay generates a “glow-type” luminescent signal, produced by the luciferase reaction. Briefly, after chemicals and strains were incubated for 24 h, 100 µL of the culture was taken from each well and mixed with the same volume of the BacTiter-Glo™ reagent in a white, opaque-walled microtiter plate. Control wells containing medium without cells were prepared to obtain a value for background luminescence. Cells without compound were used as an ATP-positive control. The microplates were further incubated under agitation for 7 min. Bioluminescence was recorded in a multi-detection microplate reader (BioTek Synergy 2 Multi-Mode Microplate Reader, BioTek Instruments, Winooski, VT, USA). In Figure 3, results were given as percentage of untreated control, which is set at 100%. Experiments were performed in triplicate and each sample was measured in four replicates.

C. krusei (ATCC 6258) = experiment: Microdilution susceptibility assay (MIC); type: cell-based, Candida krusei; conditions: Pichia kudriavzevii, ATCC6258
Method: as §1, §2

C. glabrata (ATCC 90030) = experiment: Microdilution susceptibility assay (MIC); type: cell-based, Candida glabrata; conditions: Nakaseomyces glabratus, ATCC90030
Method: as §1, §2

## Cn1cccc1C(=O)C=Cc1ccc(-c2ccccc2[N+](=O)[O-])o1 [Compound 3, 1-(1-Methyl-1H-pyrrol-2-yl)-3-(5-(2-nitrophenyl)furan-2-yl)prop-2-en-1-one]
[1]
  MIC: 50 mg/L (≈ 155 µM)
[2]
  IC50: > 322 mg/L
C6 rat glioma cell line
  IC50: > 322 mg/L
[3]
  IC50: 27 mg/L (≈ 83.8 µM)
[4]
  IC50: > 322 mg/L
E. faecalis (ATCC 51299)
  MIC: 200 mg/L (≈ 621 µM)
C. albicans (ATCC 90028)
  MIC: 50 mg/L (≈ 155 µM)
[5]
  MIC: 200 mg/L (≈ 621 µM)
E. faecalis (ATCC 29212) [6]
  MIC: 100 mg/L (≈ 310 µM)
E. coli (ATCC 25922)
  MIC: 100 mg/L (≈ 310 µM)
S. aureus (ATCC 25923)
  MIC: 100 mg/L (≈ 310 µM)
C. albicans
  antifungal activity in ATP bioluminescence assay: no statistically significant effects
E. faecalis (ATCC 29212) [7]
  antimicrobial activity in ATP bioluminescence assay: sensitive
C. krusei (ATCC 6258)
  MIC: 100 mg/L (≈ 310 µM)
C. glabrata (ATCC 90030)
  MIC: 100 mg/L (≈ 310 µM)
other
  melting point: 94 to 95 °C
